Results on one compound are retold here after paper PMC9646836, “Tetrahydroquinolinone derivatives exert antiproliferative effect on lung cancer cells through apoptosis induction” (Scientific Reports, 2022).

Holding throughout (format): cell-based, human
Test [1] relates to caspase-3/7 in A549 cells. In words: Caspase-3/7 activation (flow cytometry). The settings on record: A549, IC50 concentration. The method, then: Apoptosis induction via both intrinsic and extrinsic pathways is mediated by caspase cascade events. Therefore, in this study, the ability of 4a to activate two effector caspases (caspase-3 and caspase-7) was evaluated by flow cytometry.
(§1) Cells were seeded in a 5-cm^2 dish at a density of 15 × 10^5 cells per dish and allowed to attach overnight at 37 °C. Then, compounds at IC50 concentrations were added to the medium. After 6, 24, and 48 h, the cells were harvested and washed with PBS. Subsequently, the cells were resuspended in the binding buffer and stained with Annexin V Alexa Fluor™ 488 conjugate (#A13201; Thermo Fisher Scientific) for the apoptosis assay and with CellEvent™ Caspase-3/7 Green Flow Cytometry Assay Kit (#C10427; Thermo Fisher Scientific) for the activation of caspase-3/7, as per the manufacturer’s instructions. After incubation, the samples were immediately analyzed using a Guava EasyCyte 8 cell sorter (Merck Millipore) and FlowJo software v10. Each experiment was repeated three times.
In general terms: Flow cytometry measures light scatter and fluorescence of single cells or particles in a stream.

A further test concerns A549. In words: MTT cell viability assay, A549. The note with it: Homo sapiens, A549, 72 h, mean ± SD, n = 3. As for the experimental part: (§2) All new tetrahydroquinoline derivatives were assessed for cytotoxicity on a broad panel of cancer and normal cell lines, using the MTT assay. The half-inhibitory growth inhibitory concentration (IC50) values of each compound were calculated after 72 h of treatment and presented in Table 1. […] In this assay, the IC50 value of 5-FU and ETP was recorded as a positive control.
(§3) Non-small cell lung cancer cells A549 (CCL-185), breast cancer cells MCF-7 ([…]), hepatocarcinoma cells HepG2 ([…]), normal kidney cells HEK293 (CRL-1573), and osteosarcoma cells U-2 OS (HTB-96) were obtained from the American Type Culture Collection. HCT-116 cell line was kindly provided by prof. Bert Vogelstein (Johns Hopkins University, Howard Hughes Medical Institute, USA). The obtained A549 and MCF-7 cells were cultured in RPMI-1640 medium, HepG2 cells in Minimum Essential Medium Eagle medium, HEK-293 cells in Dulbecco’s Modified Eagle’s medium, and U-2 OS and HCT-116 cells in McCoy’s […] medium. All culture media were supplemented with 10% fetal bovine serum, 2 mM L-glutamine, and antibiotics (penicillin 62.6 µg/ml and streptomycin 40 µg/ml; Sigma-Aldrich). Both cancer and normal cells were cultured at 37 °C under a humidified atmosphere with 5% or 10% CO2 and routinely screened for Mycoplasma contamination. All materials and reagents were obtained from Corning unless stated otherwise.
(§4) The cytotoxic effect of the synthesized compounds was assessed by the MTT (4,5-dimethylthiazol-2-yl-2,5-diphenyltetrazoliumbromide; Sigma-Aldrich) assay. Briefly, the cells were seeded into 96-well transparent flat-bottom plates and allowed to attach overnight. On the next day, the cells were treated with compounds in the range of 0–50 µM for 72 h. Dimethyl sulfoxide (DMSO; Merck) and 5-fluorouracil (5-FU; Sigma-Aldrich) were used as a reference. After exposure to the compounds, 20 μl of the MTT solution at a concentration of 4 mg/ml was added to each well, and the plates were incubated again for 2–3 h at 37 °C. Next, the media in the wells was replaced with 100 μl DMSO to solubilize the formazan crystals. The absorbance was measured at 540 nm using an ASYS UVM340 microplate reader (Biochrom Ltd.). The IC50 value of the compounds was calculated using GraphPad Prism 9 software, based on the curves plotted with survival as a function of dose, averaged from three independent experiments.
A general note: Tetrazolium assays rely on reduction of a dye to a coloured formazan, in cell work by metabolically active cells.

The next test deals with A549 cells. In words: Apoptosis assay (Annexin V/7-AAD, flow cytometry). The settings on record: A549, IC50 concentration. The method, then: To further explain the mechanism by which 4a induced cell death in cancer cells, a flow cytometric analysis was performed by dual-staining the cells with 7-aminoactinomycin D (7-AAD) and Annexin V-fluorescein isothiocyanate (FITC). Annexin-V is a Ca^2+-dependent protein with potent affinity to phosphatidylserine. During early apoptosis, cells lose plasma membrane asymmetry through, for example, the externalization of phosphatidylserine. Once exposed to the outside of the cell surface, phosphatidylserine can be recognized by Annexin-V, and quantified. On the other hand, 7-AAD is a dye that cannot penetrate the intact cell membrane, and allows differentiating between necrotic and late apoptotic cells from living and early apoptotic cells. […] Treatment with the tested compound for 24 h caused 3.9-fold augmentation in apoptosis [early: 7-AAD (–), Annexin V-FITC (+); late: 7-AAD (+), Annexin V-FITC (+)] in comparison to the vehicle.
as §1

Test [2] concerns apoptosis-related proteins in A549 cells. In words: Western blotting of apoptosis-related proteins. The method, then:
The expression of apoptosis-related proteins was determined by Western blotting. Briefly, A549 cells were treated with compound 4a at its IC50 concentration for 6, 24, and 48 h. The cells treated with 1% v/v DMSO served as the negative control. The total protein content was extracted from the cells using the NP-40 cell lysis buffer (10 mM Tris–HCl pH 7.4, 10 mM NaCl, 3 mM MgCl2, 0.5% Nonidet P-40, cOmplete Mini EDTA-free Protease Inhibitor Cocktail). Then, 30 µg of protein extract was separated by 10% sodium dodecyl sulfate–polyacrylamide gel electrophoresis, and the separated proteins were transferred to microporous polyvinylidene difluoride membranes (Bio-Rad). The membranes were blocked with 5% bovine serum albumin in tris-buffered saline-Tween 20 (TBST) buffer (0.2 M Tris-base, 0.137 M NaCl, 0.1% Tween 20) for 1 h at RT, and incubated overnight with primary antibodies at 4 °C. The blots were washed three times with TBST and incubated with appropriate peroxidase-conjugated secondary antibodies for 1 h at RT. Then, the blots were washed in TBST for 30 min and developed using an enhanced chemiluminescence detection reagent kit (Thermo Fisher Scientific) and a ChemiDoc XRS + Imaging System (Bio-Rad). All materials and reagents were obtained from Sigma-Aldrich unless stated otherwise.

The next test deals with HCT-116. The experiment in a line: MTT cell viability assay, HCT-116. The settings on record: mean ± SD, n = 3. The method, then: as §2, §3, §4
Setting [3] is: A549, IC50 concentration, 6, 24, 48 h.

A word on the IC50: it is the midpoint of a concentration-inhibition curve. For the compound `O=c1[nH]c2c(c(-c3ccccc3)c1Cc1cccc3ccccc13)CCCC2` [Compound 4a, 3-(1-naphthylmethyl)-4-phenyl-5,6,7,8-tetrahydro-1H-quinolin-2-one], in test [1] (24 and 48 h, vs vehicle), the “activation of caspase-3/7” value is on record as 3.9 ± 0.33 fold. The “increase in the activity of caspase-3/7” value in test [1] (6 h) stood at 2.32 ± 0.05 fold. In the test with A549, this compound showed an IC50 of 11.3 ± 0.67 µM. Moreover, the “increase in the fraction of early-apoptotic cells [7-AAD (–), Annexin V-FITC (+)]” value in the test on A549 cells (6 h, vs DMSO control) is 14.03 ± 1.74%. Moreover, the “augmentation in apoptosis (early + late)” value in the test with A549 cells (24 h, vs vehicle) is 3.9 fold. Moreover, the “percentage of apoptotic cells” value in the test with A549 cells (48 h) is “significant increase”. Further, in test [2] (setting [3]), the PARP-1 band entry is recorded as “proteolytic cleavage”; the “caspase-3, caspase-8, and caspase-9” value is reported as “cleaved into their corresponding catalytically active forms”; the “expression of BAD protein” value is listed as “higher than that in the control group”; the “expression of BAX protein” value was “higher than that in the control group”. In test [2] (setting [3]), the “expression of BCL-2 protein” value was “significantly decreased” and the “expression of BID” value is given as “slightly activated”. In addition, in test [2] (A549, IC50 concentration, vs DMSO-treated control), the “expression of AIF” value is “remained unchanged”. In addition, in the test with HCT-116 (72 h), the midpoint of inhibition, the IC50, lay at 12.2 ± 1.61 µM. In addition, the IC50 in the test with HCT-116 (Homo sapiens, HCT-116, 72 h) was about 13 µM.
